In patent US20250120920A1, “DRUG-DELIVERING NERVE WRAP” (UNIVERSITY OF UTAH RESEARCH FOUNDATION, priority 2019, published 2025):

Tests used:
[1] = type: physicochemical
Description: The inventors discovered that FK506, in particular, is subject to thermal degradation beginning at about 140° C. when incorporated into the preferred polymers within the preferred loading ranges as disclosed herein. While conventional PLLA and PLLA co-polymer hot-melt extrusion protocols call for temperatures exceeding 140° C., limiting the maximum temperature still allows for sufficient manufacturability while minimizing or preventing unwanted thermal degradation of the FK506.

whole chick DRGs = assay: DRG neurite extension bioactivity verification assay; type: cell-based; details: 20 ng/ml FK506 positive control; 72 hours culture
Description: Fertilized chicken eggs (Merrills Poultry, ID, USA) were incubated at ˜39° C. under 100% relative humidity for 12 days. Dorsal root ganglions (DRG) were dissected from the embryos under a microscope. 24-well plates were coated with laminin (1 μg/ml), then 500 μL from each media sample was placed into 3 wells. DRGs were separated carefully from connective tissue for culturing and a single DRG was placed into each well. For comparison to known FK506 concentrations, DRGs were also grown in negative and positive control concentrations of FK506, 0 ng/ml and 20 ng/ml, respectively. Groups tested: 0 ng/ml FK506 (n=4), 20 ng/ml FK506 control (n=4), Day 4 collection of LD-Wrap (n=6), and Day 4 collection of HD-Wrap (n=8). amples were diluted in DMEM/F12+10% FBS and 1% Pen-Strep. HD-Wrap and LD-Wrap drug release test samples were diluted by a factor of 10 and 2, respectively. Drug release test samples average concentrations after dilution: Day 4 LD-Wrap—18.5 ng/ml FK506 and Day 4 HD-Wrap—23.1 ng/ml FK506. The plate was incubated for 72 hours at 37° C. and 5% CO2 to evaluate the released drug's bioactivity. […] Briefly, the area of the ganglion body (ADRG) and the total area of the DRG with the growing axons (Atot) were measured using ImageJ (ImageJ 1.31v, National Institutes of Health, Bethesda, USA). The average neurite length (lavg) was calculated by: lavg=(Atot/π)^1/2−(ADRG/π)^1/2. […]

**Q.** What does the source list for `C=CC[C@@H]1/C=C(\C)C[C@H](C)C[C@H](OC)[C@H]2O[C@@](O)(C(=O)C(=O)N3CCCC[C@H]3C(=O)O[C@H](/C(C)=C/[C@@H]3CC[C@@H](O)[C@H](OC)C3)[C@H](C)[C@@H](O)CC1=O)[C@H](C)C[C@@H]2OC` [FK506]?
**A.** temperature at which thermal degradation begins [1]: about 140 °C; Average neurite extension (whole chick DRGs): 720±72.2 μm
